Source: PubChem BioAssay AID2060910 (Molecular Pharmacology Branch, DTP, NCI, 2025)

Test system: 242566-281-R-J2-PDC complex spheroid viability
Assay: Anticancer human tumor 242566-281-R-J2-PDC patient-derived pancreatic carcinoma cell line growth inhibition [RAS]
Conditions: for IC50: curve of first compound; for viability, T/C: stronger effect = lower value
From the text: RAS pathway inhibitors in Combinations in Complex Spheroids
A high-throughput screen of multi-cell type tumor spheroids was designed to identify active combinations of RAS pathway inhibitors and targeted small molecules. Complex spheroids include a stromal component modeled by human endothelial cells (HUVEC) and fibroblasts modeled by human mesenchymal stem cells (MSCs). The concentration ranges selected for each drug and investigational agent were based upon clinically achievable concentrations if the clinical Cmax of the agent was known.
Compounds. The drugs and investigational agents: abemaciclib (NSC768073), cobimetinib (NSC768068), divarasib (GDC6063, NSC841802), docetaxel (NSC628503), GDC-1971 (RLY-1971, NSC841576), gemcitabine (NSC613327), inavolisib (NSC800729), ipatasertib (NSC767898), KB-0742 (NSC834161), MRTX-1133 (NSC836407), osimertinib (NSC779217), RMC-4630 (NSC839698), RMC-6236 (NSC851965), RMC-6291 (NSC852671), Ro-3306 (NSC812927), sapanisertib (NSC764658), SN-38 (NSC673596), staurosporine (NSC755774), SY5609 (NSC837396), and tovorafenib (DAY101, NSC766906), were obtained from the National Cancer Institute (NCI) Developmental Therapeutics Program Chemical Repository. The FDA-approved anticancer drug set is available from the NCI Developmental Therapeutics Program. […] The stock solutions were prepared in dimethyl sulfoxide (DMSO, Sigma-Aldrich, St. Louis, MO, cat. D2650) at 800-fold the tested concentration and stored at -70 degrees C prior to their use. All drugs and investigational agents were tested over a range starting from a high concentration at or near the clinical Cmax and decreasing in half-log increments. If the clinical Cmax for an agent had not been determined, the highest concentration tested was 10 microM.
Cell Culture. All cells were maintained in an incubator at 37 degrees C and 5% CO2 with 95% humidity. The PDC lines were cultured according to standard operating procedures established by the NCI PDMR. All PDCs were thawed and cultured in Matrigel-coated flasks prepared with a working solution of 1X Ham's F-12 nutrient mix, without supplementation (Invitrogen, Waltham, MA, cat. 11765054), 100 U/mL penicillin-streptomycin (Invitrogen, cat. 15140122), and 2.5% Matrigel (Corning Inc., Corning, NY, cat. 354248) for the first three passages. The 362531-283-R-J2-PDC and 782815-120-R-J1-PDC lines were cultured in 6C/Colon 1B media, which includes advanced DMEM/F-12 (Thermo Fisher Scientific, cat. 12634028), 10 mM HEPES (Thermo Fisher Scientific, cat. 15630080), 1X GlutaMAX supplement (Thermo Fisher Scientific, cat. 35050061), 0.1 mg/mL primocin (InvivoGen, San Diego, CA, cat. ant-pm-2), 10% defined fetal bovine serum, heat inactivated (HyClone Laboratories Inc., Logan, UT, cat. SH30070.03HI), 50% L-WRN conditioned media (ATCC, cat. CRL-3276), 1.25 mM N-Acetyl-L-cysteine (Sigma-Aldrich, cat. A9165), 10 mM nicotinamide (Sigma-Aldrich, cat. N0636), 1X B-27 supplement (Thermo Fisher Scientific, cat. 17504044), 1X N-2 supplement (Thermo Fisher Scientific, cat. 17502048), 50 ng/mL human EGF (Thermo Fisher Scientific, cat. PHG0311), and 10 microM Y-27632 dihydrochloride (Tocris Bioscience, cat. 1254). The K12877-001-R-J1-PDC line was cultured in 6I media, which includes all 6C/Colon 1B media plus 10 ng/mL human FGF-10 (PeproTech, cat. 100-26), 1 ng/mL human FGF-2 (PeproTech, cat. 100-18B), 1 µM prostaglandin E2 (Tocris Bioscience, cat. 2296), […] hydrocortisone (Sigma-Aldrich, cat. H4001), and […] bovine insulin (Sigma-Aldrich, cat. I6634). The K86415-001-R-J1-PDC line was cultured in 6D media, which includes all 6C/Colon 1B media components minus the L-WRN conditioned media. The 485176-168-R4-J1-PDC was cultured in PANC media, which includes all 6C/Colon 1B media plus 100 ng/mL human FGF-10 (PeproTech, cat. 100-26), 500 nM SB-431542 (Selleckchem, cat. S1067), and 10 nM gastrin (Tocris Bioscience, cat. 3006). […]
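Further: spheroids exposed to compound for 7 days before readout.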
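Wherever viability, T/C is given: 100% = DMSO vehicle control wells.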

IC50 (second compound 0.00316 µM): > 10 µM
IC50 (second compound 0.01 µM): > 10 µM
IC50 (second compound 0.0316 µM): > 10 µM
IC50 (second compound 0.1 µM): > 10 µM
IC50 (second compound 0.316 µM): > 10 µM
IC50 (second compound 1 µM): > 10 µM
SMILES: CC(C)NCC(C(=O)N1CCN(c2ncnc3c2C(C)CC3O)CC1)c1ccc(Cl)cc1 (configuration not stated) + C=CC(=O)N1CCN(c2nc(OCC3CCCN3C)nc3c(F)c(-c4nc(N)cc(C)c4C(F)(F)F)c(Cl)cc23)C(C)C1
viability, T/C (second compound 0.00316 µM, first compound 0.0316 µM): 115%
viability, T/C (second compound 0.00316 µM, first compound 0.1 µM): 99.9%
viability, T/C (second compound 0.00316 µM, first compound 0.316 µM): 106%
viability, T/C (second compound 0.00316 µM, first compound 1 µM): 90.6%
viability, T/C (second compound 0.00316 µM, first compound 3.16 µM): 81.9%
viability, T/C (second compound 0.00316 µM, first compound 10 µM): 84.9%
viability, T/C (second compound 0.01 µM, first compound 0.0316 µM): 100%
viability, T/C (second compound 0.01 µM, first compound 0.1 µM): 122%
viability, T/C (second compound 0.01 µM, first compound 0.316 µM): 102%
viability, T/C (second compound 0.01 µM, first compound 1 µM): 98.7%
viability, T/C (second compound 0.01 µM, first compound 3.16 µM): 91.2%
viability, T/C (second compound 0.01 µM, first compound 10 µM): 89.3%
viability, T/C (second compound 0.0316 µM, first compound 0.0316 µM): 107%
viability, T/C (second compound 0.0316 µM, first compound 0.1 µM): 117%
viability, T/C (second compound 0.0316 µM, first compound 0.316 µM): 90.9%
viability, T/C (second compound 0.0316 µM, first compound 1 µM): 93.1%
viability, T/C (second compound 0.0316 µM, first compound 3.16 µM): 90.9%
viability, T/C (second compound 0.0316 µM, first compound 10 µM): 86.2%
viability, T/C (second compound 0.1 µM, first compound 0.0316 µM): 91.8%
viability, T/C (second compound 0.1 µM, first compound 0.1 µM): 104%
viability, T/C (second compound 0.1 µM, first compound 0.316 µM): 95.1%
viability, T/C (second compound 0.1 µM, first compound 1 µM): 89.1%
viability, T/C (second compound 0.1 µM, first compound 3.16 µM): 87.5%
viability, T/C (second compound 0.1 µM, first compound 10 µM): 77.7%
viability, T/C (second compound 0.316 µM, first compound 0.0316 µM): 98.6%
viability, T/C (second compound 0.316 µM, first compound 0.1 µM): 114%
viability, T/C (second compound 0.316 µM, first compound 0.316 µM): 97.5%
viability, T/C (second compound 0.316 µM, first compound 1 µM): 88%
viability, T/C (second compound 0.316 µM, first compound 3.16 µM): 88%
viability, T/C (second compound 0.316 µM, first compound 10 µM): 81.2%
viability, T/C (second compound 1 µM, first compound 0.0316 µM): 99.6%
viability, T/C (second compound 1 µM, first compound 0.1 µM): 133%
viability, T/C (second compound 1 µM, first compound 0.316 µM): 107%
viability, T/C (second compound 1 µM, first compound 1 µM): 101%
viability, T/C (second compound 1 µM, first compound 3.16 µM): 77.6%
viability, T/C (second compound 1 µM, first compound 10 µM): 82.9%
